Reference: the supplement of paper PMC4862054
Values joined by “and” are separate entries in the source; they are usually repeats but may differ in a detail not shown here. Equal entries are not always repeated.

Experiments:
CAL-120 = assay: normalised viability (% of control), CellTiter-Blue; higher = more viable cells (about 100 = DMSO control); conditions: 100 nM; incubation time: 72 h
Description: (§1)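 DSRT, CellTiter-Blue viability, 72 h incubation. Signal is normalised to DMSO and benzethonium chloride controls. Value is the normalised response at dose 3.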

DU-4475 [1] = assay: as above; conditions: 10 nM; incubation time: 72 h
Description: as §1

BT-474 = assay: as above; conditions: 100 nM; incubation time: 72 h
Description: as §1

SK-BR-3 [2] = assay: as above; conditions: 100 nM; incubation time: 72 h
Description: as §1

MFM-223 = assay: as above; conditions: 100 nM; incubation time: 72 h
Description: as §1

HDQ-P1 = assay: as above; conditions: 10 nM; incubation time: 72 h
Description: as §1

HCC1599 [3] = assay: as above; conditions: 100 nM; incubation time: 72 h
Description: as §1

MDA-MB-436 [4] = assay: as above; conditions: 100 nM; incubation time: 72 h
Description: as §1

Hs578T = assay: as above; conditions: 100 nM; incubation time: 72 h
Description: as §1

CAL-148 [5] = assay: as above; conditions: 10 nM; incubation time: 72 h
Description: as §1

BT-549 = assay: as above; conditions: 100 nM; incubation time: 72 h
Description: as §1

HCC1937 = assay: as above; conditions: 100 nM; incubation time: 72 h
Description: as §1

MDA-MB-231 = assay: as above; conditions: 100 nM; incubation time: 72 h
Description: as §1

CAL-85-1 [6] = assay: as above; conditions: 10 nM; incubation time: 72 h
Description: as §1

MDA-MB-453 = assay: as above; conditions: 10 nM; incubation time: 72 h
Description: as §1

CAL-51 [7] = assay: as above; conditions: 10 nM; incubation time: 72 h
Description: as §1

MDA-MB-468 [8] = assay: as above; conditions: 100 nM; incubation time: 72 h
Description: as §1

HCC1143 [9] = assay: as above; conditions: 100 nM; incubation time: 72 h
Description: as §1

SK-BR-3 [10] = assay: drug sensitivity score (DSS), CellTiter-Glo (DSS (AUC-based score)); higher = stronger drug effect (viability inhibition or cytotoxicity); extreme values may be limits of the assay; conditions: incubation time: 72 h
Summary of the method: (§2)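 Breast cancer cell lines, seeded as 20 µl suspension, were incubated 72 h with compound in 384-well plates at 5 concentrations in 10-fold steps over a 10,000-fold range set for each compound. Fluorescence from CellTox Green was read at 485/520 nm before CellTiter-Glo luminescence, which was read after 10 min at room temperature. Every plate was normalised to 0.1 % DMSO and a positive kill control, and the drug sensitivity score was taken from the area under the fitted dose-response curve.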

HCC1599 [11] = assay: as above; conditions: incubation time: 72 h
Summary of the method: as §2

MDA-MB-436 [12] = assay: as above; conditions: incubation time: 72 h
Summary of the method: as §2

CAL-148 [13] = assay: as above; conditions: incubation time: 72 h
Summary of the method: as §2

MCF-10A = assay: as above; conditions: incubation time: 72 h
Summary of the method: as §2

MDA-MB-468 [14] = assay: as above; conditions: incubation time: 72 h
Summary of the method: as §2

HCC1143 [15] = assay: as above; conditions: incubation time: 72 h
Summary of the method: as §2

DU-4475 [16] = assay: normalised viability (% of control), CellTiter-Blue; higher = more viable cells (about 100 = DMSO control); conditions: 300 nM; incubation time: 72 h
Summary of the method: (§3)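 Compound dissolved in 5 µl medium was pre-loaded into 384-well plates, and breast cancer cell lines in 20 µl suspension were seeded on top and incubated 72 h. After adding 2.5 µl CellTiter-Blue reagent for 2 h at 37 °C, fluorescence was read at 560/590 nm. Plates were normalised to vehicle (100) and a positive kill control (0), with Z'-factor quality control. Each value is normalised viability at a single listed concentration from the series.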

CAL-148 [17] = assay: as above; conditions: 300 nM; incubation time: 72 h
Summary of the method: as §3

CAL-85-1 [18] = assay: as above; conditions: 300 nM; incubation time: 72 h
Summary of the method: as §3

CAL-51 [19] = assay: as above; conditions: 300 nM; incubation time: 72 h
Summary of the method: as §3

SMILES | normalised viability (CAL-120) | normalised viability (DU-4475 [1]) | normalised viability (BT-474) | normalised viability (SK-BR-3 [2]) | normalised viability (MFM-223) | normalised viability (HDQ-P1) | normalised viability (HCC1599 [3]) | normalised viability (MDA-MB-436 [4]) | normalised viability (Hs578T) | normalised viability (CAL-148 [5]) | normalised viability (BT-549) | normalised viability (HCC1937) | normalised viability (MDA-MB-231) | normalised viability (CAL-85-1 [6]) | normalised viability (MDA-MB-453) | normalised viability (CAL-51 [7]) | normalised viability (MDA-MB-468 [8]) | normalised viability (HCC1143 [9]) | drug sensitivity score (SK-BR-3 [10]) | drug sensitivity score (HCC1599 [11]) | drug sensitivity score (MDA-MB-436 [12]) | drug sensitivity score (CAL-148 [13]) | drug sensitivity score (MCF-10A) | drug sensitivity score (MDA-MB-468 [14]) | drug sensitivity score (HCC1143 [15]) | normalised viability (DU-4475 [16]) | normalised viability (CAL-148 [17]) | normalised viability (CAL-85-1 [18]) | normalised viability (CAL-51 [19])
Oc1ncc(N(CCCl)CCCl)c(O)n1 [Uracil mustard] | 87.7% | 98.6% | 106% | 88.2% | 90.6% | 107% | 83.5% | 102% | 116% | 95.8% | 111% | 105% | 100% | 103% | 107% | 98.6% | 108% | 84.8% | 0 | 0 | 0 | 0 | 0 | 0 | 0 | 80.8% | 89.7% | 93.1% | 96.4%
Nc1ncn([C@H]2C[C@H](O)[C@@H](CO)O2)c(=O)n1 [Decitabine] | 85.2% and 84.4% | 98.1% and 117% | 87.1% and 95.7% |  | 79% and 95.3% | 109% and 95.9% | 108% and 99.9% | 89.6% and 90.8% | 85.2% and 99.2% | 87.3% and 90% | 102% and 98.4% | 101% and 108% | 86.7% and 95% | 96% and 100% | 90.9% and 113% | 112% and 102% | 32.4% and 32.1% | 82.4% and 79.1% | 0 | 0 | 0 | 0 | 0 | 19 | 0 | 86% and 85.5% | 97.3% and 76% | 81.5% and 90.7% | 99% and 92.1%
O=C(O)CCCCC(CCSCc1ccccc1)SCc1ccccc1 (stereo not drawn) [CPI-613] |  |  |  |  |  |  |  |  |  |  |  |  |  |  |  |  |  |  | 0 | 0 | 0 | 0 | 0 | 0 | 0 |  |  |  | 
Cc1cnc(NC(=O)Nc2cc(Br)c(C)cc2OC[C@@H]2CNCCO2)cn1 [Rabusertib] |  |  |  |  |  |  |  |  |  |  |  |  |  |  |  |  |  |  | 1.38 | 1.93 | 0 | 0 | 0 | 0 | 0 |  |  |  | 
NCCCNCCSP(=O)(O)O [Amifostine] | 90.4% | 97.3% | 95.8% | 108% | 77.7% | 105% | 98.2% | 107% | 79.1% | 93.5% | 103% | 85.5% | 93.1% | 90.7% | 85.7% | 105% | 102% | 78.3% |  |  |  |  |  |  |  | 87.7% | 95.2% | 93.8% | 103%
